# How the values were obtained:
# CYP1A1 = test: In vitro induction of cytochrome P450 enzymes; format: in vitro ADME; details: high cabozantinib concentrations (30 μM)
# invasive prostate cancer = details: through a neutrophil mediated anticancer innate immune response; cited from earlier work
# [1] = test system: murine colon carcinoma cell line (MC38-CEA); details: in vitro; cited from earlier work
# human plasma proteins = test: Plasma protein binding; format: in vitro ADME
# cytochrome P450 enzymes = test: In vitro induction of cytochrome P450 enzymes; format: in vitro ADME
# [2] = test system: metastatic triple-negative breast cancer; details: in vivo; cited from earlier work
# [3] = Time to steady state exposure of cabozantinib; format: in vivo, human; details: following first dose
# Excerpt: Events that generally have an early onset include hypocalcemia, hypokalemia, thrombocytopenia, hypertension, PPE, abdominal pain, mucosal inflammation, constipation, diarrhea, and vomiting. Adverse events should be managed with supportive car at the earliest signs of toxicity. Dose reductions and treatment interruptions should be considered. Dose reductions are recommended for events that, if persistent, could become serious or intolerable (Table 6-3).
# [4] = test system: advanced RET-rearranged NSCLC; details: cited from earlier work
# CYP2C9 = CYP2C9 (Homo sapiens, UniProt P11712); test: In vitro CYP substrate studies; format: in vitro ADME
# [5] = test system: subjects with medullary thyroid cancer (MTC); test: Placebo-controlled study of cabozantinib effect on QTc interval; format: in vivo, human
# Excerpt: A concentration-QTc relationship could not be definitively established. Changes in cardiac wave form morphology or new rhythms were not observed.
# [6] = test system: advanced CRPC with bone metastases; details: cited from earlier work
# [7] = test system: advanced RCC after prior VEGFR-TKI; details: cited from earlier work
# [8] = test system: previously-untreated advanced RCC of intermediate- or poor-risk; details: cited from earlier work
# MC38-CEA tumor = details: mouse, in vivo; cited from earlier work
# CYP3A4 [9] = biological target: T1, CYP3A4 (Homo sapiens, UniProt P08684); test: Clinical pharmacology study XL184-006 with the strong CYP3A4 inducer rifampin; format: in vivo; design: endogenous in cells; host or cells: healthy volunteers, in vivo; details: concurrent rifampin; single dose of cabozantinib in healthy volunteers
# Target sequence in this assay (P08684 whole entry): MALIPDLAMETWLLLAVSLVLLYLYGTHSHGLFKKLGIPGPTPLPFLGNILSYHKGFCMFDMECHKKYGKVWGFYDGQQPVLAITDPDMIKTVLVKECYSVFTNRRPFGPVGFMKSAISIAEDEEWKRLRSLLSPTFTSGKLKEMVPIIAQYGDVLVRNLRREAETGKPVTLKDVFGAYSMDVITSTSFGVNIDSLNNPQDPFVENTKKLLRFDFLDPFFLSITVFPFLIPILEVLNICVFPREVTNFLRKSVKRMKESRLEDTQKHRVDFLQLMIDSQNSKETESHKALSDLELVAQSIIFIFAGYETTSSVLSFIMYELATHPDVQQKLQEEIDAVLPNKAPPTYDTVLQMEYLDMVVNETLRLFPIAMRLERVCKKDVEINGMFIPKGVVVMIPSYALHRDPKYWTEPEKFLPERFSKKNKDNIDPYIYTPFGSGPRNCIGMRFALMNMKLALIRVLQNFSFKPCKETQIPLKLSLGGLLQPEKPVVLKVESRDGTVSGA
# [10] = test system: relapsed or refractory metastatic UC; details: cited from earlier work
# P-glycoprotein = P-glycoprotein (Homo sapiens, UniProt P08183); test: In vitro P-glycoprotein substrate and inhibition data; format: in vitro ADME
# advanced NSCLC = details: cited from earlier work
# [11] = test system: CYP2D6, CYP2C8, CYP2C19, CYP2B6, or CYP1A2; details: human
# CYP3A4 [12] = biological target: T1, CYP3A4; test: Clinical pharmacology study XL184-007 with the strong CYP3A4 inhibitor ketoconazole; format: in vivo; design: endogenous in cells; host or cells: healthy volunteers, in vivo; details: concurrent ketoconazole; single dose of cabozantinib in healthy volunteers
# Target sequence in this assay (P08684 whole entry): as above
# [13] = Nonclinical GLP-compliant toxicology studies; format: in vivo
# Excerpt: The development of any new or progressive, unexplained neurological symptoms should be assessed for underlying causes.
# [14] = Food effect on cabozantinib exposure; details: in vivo
# CYP3A4 [15] = biological target: T1, CYP3A4; test: In vitro CYP substrate studies; format: in vitro ADME
# Target sequence in this assay (P08684 whole entry, species assumed): as the sequence (P08684 whole entry) above
# [16] = Effect of proton pump inhibitor esomeprazole on cabozantinib plasma PK; format: in vivo, human; details: healthy volunteers
# [17] = test system: NSCLC without EGFR genetic alterations; details: cited from earlier work
# [18] = Cohort 1, 42 evaluable subjects
# Sequence of P-glycoprotein (P08183 whole entry): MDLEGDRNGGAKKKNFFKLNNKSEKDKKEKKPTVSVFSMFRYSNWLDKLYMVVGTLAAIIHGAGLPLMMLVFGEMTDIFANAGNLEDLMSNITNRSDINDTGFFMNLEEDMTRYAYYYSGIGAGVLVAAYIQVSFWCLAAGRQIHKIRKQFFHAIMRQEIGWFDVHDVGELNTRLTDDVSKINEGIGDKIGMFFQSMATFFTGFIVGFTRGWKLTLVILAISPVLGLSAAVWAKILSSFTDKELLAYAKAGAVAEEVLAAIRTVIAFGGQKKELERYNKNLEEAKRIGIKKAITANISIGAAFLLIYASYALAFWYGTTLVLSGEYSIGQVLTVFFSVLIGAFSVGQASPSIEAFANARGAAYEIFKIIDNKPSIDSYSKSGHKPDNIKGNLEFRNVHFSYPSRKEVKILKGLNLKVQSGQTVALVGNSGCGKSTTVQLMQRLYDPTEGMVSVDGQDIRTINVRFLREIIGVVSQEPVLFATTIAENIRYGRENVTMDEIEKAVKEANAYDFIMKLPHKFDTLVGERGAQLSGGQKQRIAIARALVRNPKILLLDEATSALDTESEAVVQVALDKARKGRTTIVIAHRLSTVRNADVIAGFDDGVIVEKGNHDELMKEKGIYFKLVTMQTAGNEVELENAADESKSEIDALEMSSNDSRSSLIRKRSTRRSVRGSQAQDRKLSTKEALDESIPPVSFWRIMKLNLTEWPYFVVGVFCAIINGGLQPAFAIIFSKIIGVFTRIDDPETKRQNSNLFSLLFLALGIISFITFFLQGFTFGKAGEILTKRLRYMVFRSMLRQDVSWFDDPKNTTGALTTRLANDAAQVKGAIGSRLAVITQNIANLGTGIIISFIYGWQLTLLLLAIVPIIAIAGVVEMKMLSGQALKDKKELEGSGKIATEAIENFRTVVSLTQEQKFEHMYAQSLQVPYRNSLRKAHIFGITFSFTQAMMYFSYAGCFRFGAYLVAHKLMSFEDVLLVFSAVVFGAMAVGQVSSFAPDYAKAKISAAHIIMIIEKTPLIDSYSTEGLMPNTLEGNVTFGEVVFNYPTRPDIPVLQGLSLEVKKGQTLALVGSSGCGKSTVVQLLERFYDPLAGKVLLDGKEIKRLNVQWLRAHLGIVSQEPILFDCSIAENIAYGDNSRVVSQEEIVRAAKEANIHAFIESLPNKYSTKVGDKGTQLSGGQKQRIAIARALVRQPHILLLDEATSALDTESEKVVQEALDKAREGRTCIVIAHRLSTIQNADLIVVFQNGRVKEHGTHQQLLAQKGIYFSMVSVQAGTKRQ
# Sequence of CYP2C9 (P11712 whole entry, species assumed): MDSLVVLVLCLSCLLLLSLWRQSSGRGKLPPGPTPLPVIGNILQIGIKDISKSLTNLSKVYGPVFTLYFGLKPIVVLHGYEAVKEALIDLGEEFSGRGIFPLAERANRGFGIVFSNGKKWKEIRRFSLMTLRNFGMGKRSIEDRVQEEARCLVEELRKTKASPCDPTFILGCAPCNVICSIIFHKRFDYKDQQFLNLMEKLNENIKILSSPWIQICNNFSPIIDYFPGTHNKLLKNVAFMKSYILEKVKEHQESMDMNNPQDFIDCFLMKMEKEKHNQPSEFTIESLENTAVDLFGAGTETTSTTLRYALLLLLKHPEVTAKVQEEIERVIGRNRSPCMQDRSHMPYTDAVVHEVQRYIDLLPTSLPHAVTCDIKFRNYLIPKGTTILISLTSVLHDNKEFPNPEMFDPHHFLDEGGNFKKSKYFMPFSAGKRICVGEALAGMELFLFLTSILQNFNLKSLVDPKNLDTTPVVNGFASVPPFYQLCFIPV
compound,measurement,setting,value
"COc1cc2nccc(Oc3ccc(NC(=O)C4(C(=O)Nc5ccc(F)cc5)CC4)cc3)c2cc1OC [cabozantinib, N-(4-{[6,7-bis(methyloxy)quinolin-4-yl]oxy}phenyl)-N′-(4-fluorophenyl)cyclopropane-1,1-dicarboxamide]",Induction of CYP1A1,CYP1A1,possible induction
same,Effect on invasive prostate cancer,invasive prostate cancer,rapid elimination of invasive prostate cancer
same,Sensitivity of tumor cells to T-cell-mediated killing,[1],greater sensitivity
same,Tumor-cell expression of major histocompatibility complex (MHC) class 1 antigen,[1],increased tumor-cell expression
same,Bound to human plasma proteins,human plasma proteins,99.7%
same,Induction of cytochrome P450 enzymes,cytochrome P450 enzymes,unlikely to Induce
same,CD14+ monocytes,[2],persistent decrease
same,Fraction of circulating CD3+ T lymphocytes,[2],persistent increase
same,Time to steady state exposure,[3],approximately 2 weeks
same,Overall response rate (ORR),[4]; RET-rearranged NSCLC,28%
same,Grade 3 treatment-related AE: decreased platelet count,[4]; in vivo,8%
same,Grade 3 treatment-related AE: hypophosphataemia,[4]; in vivo,8%
same,Grade 3 treatment-related AE: increased ALT,[4]; in vivo,8%
same,Grade 3 treatment-related AE: increased AST,[4]; in vivo,8%
same,Grade 3 treatment-related AE: lipase elevation,[4]; in vivo,15%
same,Median OS,[4]; in vivo,9.9 months
same,Median PFS,[4]; in vivo,5.5 months
same,Treatment-related deaths,[4]; in vivo,No treatment-related deaths
same,CYP2C9 substrate status,CYP2C9,weak substrate
same,Subjects with a QTcF >500 ms,[5]; cabozantinib 140 mg qd,No cabozantinib-treated subjects
same,Mean increase in QTcF,"[5]; cabozantinib 140 mg qd orally, 4 weeks after initiating treatment",10 to 15 ms
same,Events of torsades de pointes,[5]; larger safety database (approximately 5000 subjects exposed),no events of torsades de pointes
same,Proportion of subjects with a bone scan response (BSR) per IRC,[6]; at Week 12,42%
same,Median PFS per investigator,[6]; exploratory endpoint,5.6 months
same,Median duration of BSR,[6]; in vivo,5.8 months
same,Median duration of OS (Kaplan-Meier),[6]; in vivo,11.0 months
same,Dose reductions from 60 mg to 40 mg,[7]; % of subjects,60%
same,Further dose reductions from 40 mg to 20 mg,[7]; % of subjects,20%
same,Treatment discontinuations due to AEs,[7]; incidence in each arm,10%
same,Discontinued study treatment due to an AE,[8]; 16 subjects in each arm,20%
same,Adverse events of ≥Grade 3 regardless of causality,[8]; % of subjects,68%
same,Reduction of the rate of disease progression or death,[8]; compared with sunitinib,34%
same,Median OS,[8]; in vivo,26.6 months
same,Median PFS per IRC,[8]; in vivo,8.6 months
same,Median PFS per investigator,[8]; in vivo,8.2 months
same,≥Grade 3 AE: PPE,[8]; in vivo,8%
same,≥Grade 3 AE: diarrhea,[8]; in vivo,10%
same,≥Grade 3 AE: fatigue,[8]; in vivo,6%
same,≥Grade 3 AE: hematological events,[8]; in vivo,2%
same,≥Grade 3 AE: hypertension,[8]; in vivo,28%
same,Peripheral CD8+ T-cell counts,MC38-CEA tumor,increased
same,Regulatory T-cells (Tregs) and myeloid-derived suppressor cells (MDSCs),MC38-CEA tumor,decreased
same,Treg suppressor activity,MC38-CEA tumor,decreased
same,Reduction in cabozantinib exposure (AUC values),CYP3A4 [9],approximately 77%
same,Number of PRs,[10]; [18],7
same,Number of complete responses (CR),[10]; [18],1
same,ORR,[10]; [18],19.1%
same,Median OS,[10]; Cohort 1,8.0 months
same,Median PFS,[10]; Cohort 1,3.7 months
same,Cabozantinib-related Grade 4 AE: hypomagnesemia,[10]; all cohorts (n=67),3%
same,Cabozantinib-related Grade 4 AE: lipase increased,[10]; all cohorts (n=67),1%
same,Grade 3 AE related to cabozantinib: hypertension,[10]; all cohorts (n=67),7%
same,Grade 3 AE related to cabozantinib: hypophosphatemia,[10]; all cohorts (n=67),6%
same,Grade 3 AE related to cabozantinib: fatigue,"[10]; all cohorts (n=67), most frequent (5% incidence)",9%
same,Immunosuppressive Treg lymphocytes following treatment,[10]; in vivo,reductions
same,Inhibition of P-glycoprotein transport activity,P-glycoprotein,potential to inhibit
same,P-glycoprotein substrate status,P-glycoprotein,unlikely to be a substrate
same,ORR,"advanced NSCLC; 60 subjects, single agent",10%
same,Stable disease as best response,advanced NSCLC; % of subjects,48.3%
same,Objective response rate (ORR),"advanced NSCLC; heavily pre-pretreated unselected NSCLC, early phase clinical trials",approximately 10%
same,Median PFS,advanced NSCLC; in vivo,4.0 months
same,"CYP2D6, CYP2C8, CYP2C19, CYP2B6, CYP1A2 substrate status",[11],"not a CYP2D6, CYP2C8, CYP2C19, CYP2B6, or CYP1A2 substrate"
same,Increase in cabozantinib exposure (AUC values),CYP3A4 [12],38%
same,Risk of adverse neurological effects,[13],minimal risk of adverse neurological effects
same,Increase of exposure levels by food,[14],57%
same,CYP3A4 substrate status,CYP3A4 [15],CYP3A4 substrate
same,Effect of esomeprazole on cabozantinib plasma PK,[16],no clinically-relevant effect
same,Estimated median OS,[17]; in vivo,9.2 months
same,ORR,[17]; in vivo,11%
same,PFS,[17]; second or third line treatment,4.3 months
same,Grade 3 or 4 AE: diarrhea,[17]; single-agent cabozantinib,8%
same,Grade 3 or 4 AE: fatigue,[17]; single-agent cabozantinib,15%
same,Grade 3 or 4 AE: hypertension,[17]; single-agent cabozantinib,25%
same,Grade 3 or 4 AE: oral mucositis,[17]; single-agent cabozantinib,10%
same,Grade 3 or 4 AE: thromboembolic event,[17]; single-agent cabozantinib,8%
